Experimental findings from patent publication US12258328B2, “6-membered heteroaryl-containing aminopyridine compounds as EGFR inhibitors” (YUHAN CORPORATION, priority 2021, dated 2025) are described below.

The target in one assay is EGFR L858R/C797S (Homo sapiens, UniProt P00533, C797S/L858R). Put plainly: Biochemical EGFR kinase assay (Lance Ultra TR-FRET), double mutant L858R/C797S. The procedure, abridged:
(§1)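 Enzyme reactions lasted 1 hour at room temperature with test compounds between 0.003 and 10 μM, followed by 10 mM EDTA quench.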
(In general: In TR-FRET formats the signal depends on donor and acceptor labels being close together.)

The target in the next assay is EGFR del19/C797S (Homo sapiens, UniProt P00533, C797S/DEL746-750). As to the kind of experiment: Biochemical EGFR kinase assay (Lance Ultra TR-FRET), double mutant del19/C797S. The method in brief:
as §1

The target in another assay is EGFR L858R/T790M/C797S (Homo sapiens, UniProt P00533, C797S/L858R/T790M). Put plainly: Biochemical EGFR kinase assay (Lance Ultra TR-FRET), triple mutant L858R/T790M/C797S. The method in brief:
as §1

In the next assay the target is EGFR del19/T790M/C797S (Homo sapiens, UniProt P00533, C797S/DEL746-750/T790M). As to the kind of experiment: Biochemical EGFR kinase assay (Lance Ultra TR-FRET), triple mutant del19/T790M/C797S. The procedure, abridged: as §1
Chain of EGFR del19/T790M/C797S (P00533 with tags, fused parts or gaps DEL746-750/T790M/C797S): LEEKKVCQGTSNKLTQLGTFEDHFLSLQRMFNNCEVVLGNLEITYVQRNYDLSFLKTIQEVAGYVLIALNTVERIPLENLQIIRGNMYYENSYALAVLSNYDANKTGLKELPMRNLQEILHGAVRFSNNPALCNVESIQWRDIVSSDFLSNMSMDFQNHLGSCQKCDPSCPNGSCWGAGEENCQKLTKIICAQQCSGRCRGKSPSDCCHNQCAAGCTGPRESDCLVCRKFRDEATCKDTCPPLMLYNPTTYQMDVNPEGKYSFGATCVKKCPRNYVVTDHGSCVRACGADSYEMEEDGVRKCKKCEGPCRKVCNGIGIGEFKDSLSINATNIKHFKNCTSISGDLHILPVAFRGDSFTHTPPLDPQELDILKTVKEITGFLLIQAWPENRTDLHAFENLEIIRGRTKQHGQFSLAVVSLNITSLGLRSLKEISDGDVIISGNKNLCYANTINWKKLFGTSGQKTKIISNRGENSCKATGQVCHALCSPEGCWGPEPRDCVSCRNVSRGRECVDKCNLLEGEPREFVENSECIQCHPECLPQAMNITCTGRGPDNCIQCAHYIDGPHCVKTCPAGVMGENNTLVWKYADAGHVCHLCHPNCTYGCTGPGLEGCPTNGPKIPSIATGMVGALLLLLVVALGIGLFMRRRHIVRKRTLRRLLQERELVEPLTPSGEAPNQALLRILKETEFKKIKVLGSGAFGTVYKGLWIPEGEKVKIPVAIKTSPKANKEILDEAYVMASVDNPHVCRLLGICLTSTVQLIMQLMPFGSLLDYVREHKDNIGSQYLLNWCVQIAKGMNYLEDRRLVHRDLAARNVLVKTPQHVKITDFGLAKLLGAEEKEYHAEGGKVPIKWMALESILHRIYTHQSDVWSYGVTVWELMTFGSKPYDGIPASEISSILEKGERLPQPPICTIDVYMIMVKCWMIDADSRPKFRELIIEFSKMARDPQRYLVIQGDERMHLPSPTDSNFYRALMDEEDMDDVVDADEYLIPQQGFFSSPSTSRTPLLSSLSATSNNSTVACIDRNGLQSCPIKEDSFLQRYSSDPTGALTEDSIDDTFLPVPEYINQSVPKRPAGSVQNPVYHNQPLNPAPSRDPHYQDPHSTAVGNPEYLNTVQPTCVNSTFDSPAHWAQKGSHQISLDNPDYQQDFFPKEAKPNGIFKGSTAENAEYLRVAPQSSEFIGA
The target of the next assay is EGFR wildtype (Homo sapiens, UniProt P00533). As to the kind of experiment: Biochemical EGFR kinase assay (Lance Ultra TR-FRET), wildtype. The procedure, abridged: as §1
Chain of EGFR wildtype (P00533 25-1210): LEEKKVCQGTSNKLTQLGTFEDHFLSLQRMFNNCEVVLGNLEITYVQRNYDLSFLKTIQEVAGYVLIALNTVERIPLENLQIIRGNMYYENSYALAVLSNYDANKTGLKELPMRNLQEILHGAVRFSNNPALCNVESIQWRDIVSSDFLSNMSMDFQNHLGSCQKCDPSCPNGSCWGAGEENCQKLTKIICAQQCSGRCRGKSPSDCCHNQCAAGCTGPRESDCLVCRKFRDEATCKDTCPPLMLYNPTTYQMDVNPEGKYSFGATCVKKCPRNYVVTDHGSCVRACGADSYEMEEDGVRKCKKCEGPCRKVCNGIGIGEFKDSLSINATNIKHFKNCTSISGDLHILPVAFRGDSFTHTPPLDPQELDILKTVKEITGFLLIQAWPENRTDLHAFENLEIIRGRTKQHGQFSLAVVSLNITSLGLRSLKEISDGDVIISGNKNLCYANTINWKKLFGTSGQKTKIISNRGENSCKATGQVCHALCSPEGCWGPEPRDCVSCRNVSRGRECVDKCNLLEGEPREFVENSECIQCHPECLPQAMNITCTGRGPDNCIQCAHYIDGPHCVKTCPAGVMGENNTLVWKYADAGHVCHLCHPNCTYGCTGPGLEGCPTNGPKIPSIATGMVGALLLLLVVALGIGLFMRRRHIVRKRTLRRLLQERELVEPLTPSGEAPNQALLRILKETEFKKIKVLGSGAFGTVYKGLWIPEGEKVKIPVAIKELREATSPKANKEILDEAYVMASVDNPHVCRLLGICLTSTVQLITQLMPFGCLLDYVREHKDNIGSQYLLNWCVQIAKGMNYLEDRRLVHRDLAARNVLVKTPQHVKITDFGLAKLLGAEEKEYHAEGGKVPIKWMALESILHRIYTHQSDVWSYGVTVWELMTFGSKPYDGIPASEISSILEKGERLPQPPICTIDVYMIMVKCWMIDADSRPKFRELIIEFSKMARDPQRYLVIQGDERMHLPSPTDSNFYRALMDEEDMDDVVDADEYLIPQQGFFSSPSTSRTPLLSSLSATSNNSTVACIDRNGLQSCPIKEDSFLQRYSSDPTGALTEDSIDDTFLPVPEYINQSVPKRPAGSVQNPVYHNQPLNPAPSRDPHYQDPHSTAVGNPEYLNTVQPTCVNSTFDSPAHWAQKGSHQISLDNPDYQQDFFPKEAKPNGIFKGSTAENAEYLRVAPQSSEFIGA
The mark [1] stands for this setting: ATP at Km, read-out: IC50 L858R/C797S, Km ATP.
The mark [2] stands for this setting: ATP at Km, read-out: IC50 del19/C797S, Km ATP.
[3] abbreviates: ATP at Km, read-out: IC50 L858R/T790M/C797S, Km ATP.
Setting [4] is: IC50 L858R/T790M/C797S, 100 μM ATP.
Where [5] appears, read: ATP at Km, read-out: IC50 del19/T790M/C797S, Km ATP.
Setting [6] is: IC50 del19/T790M/C797S, 100 μM ATP.
Setting [7] is: ATP at Km, read-out: IC50 WT, Km ATP.
Setting [8] is: IC50 L858R/C797S (nM) 100 μM ATP, 100 μM ATP.
Where [9] appears, read: Km ATP, read-out: IC50 L858R/C797S (nM) Km ATP.
Where [10] appears, read: IC50 del19/C797S (nM) 100 μM ATP, 100 μM ATP.
[11] abbreviates: IC50 L858R/T790M/C797S (nM) 100 μM ATP, 100 μM ATP.
[12] abbreviates: Km ATP, read-out: IC50 L858R/T790M/C797S (nM) Km ATP.
Setting [13] is: IC50 del19/T790M/C797S (nM) 100 μM ATP, 100 μM ATP.
Where [14] appears, read: Km ATP, read-out: IC50 del19/T790M/C797S (nM) Km ATP.
[15] abbreviates: IC50 WT (nM) 100 μM ATP, 100 μM ATP.
Setting [16] is: Km ATP, read-out: IC50 WT (nM) Km ATP.
[17] abbreviates: Km ATP, read-out: IC50 del19/C797S (nM) Km ATP.

Where two headings read alike, the source gives them in different places.

Chain of EGFR L858R/C797S (P00533 25-1210 C797S/L858R): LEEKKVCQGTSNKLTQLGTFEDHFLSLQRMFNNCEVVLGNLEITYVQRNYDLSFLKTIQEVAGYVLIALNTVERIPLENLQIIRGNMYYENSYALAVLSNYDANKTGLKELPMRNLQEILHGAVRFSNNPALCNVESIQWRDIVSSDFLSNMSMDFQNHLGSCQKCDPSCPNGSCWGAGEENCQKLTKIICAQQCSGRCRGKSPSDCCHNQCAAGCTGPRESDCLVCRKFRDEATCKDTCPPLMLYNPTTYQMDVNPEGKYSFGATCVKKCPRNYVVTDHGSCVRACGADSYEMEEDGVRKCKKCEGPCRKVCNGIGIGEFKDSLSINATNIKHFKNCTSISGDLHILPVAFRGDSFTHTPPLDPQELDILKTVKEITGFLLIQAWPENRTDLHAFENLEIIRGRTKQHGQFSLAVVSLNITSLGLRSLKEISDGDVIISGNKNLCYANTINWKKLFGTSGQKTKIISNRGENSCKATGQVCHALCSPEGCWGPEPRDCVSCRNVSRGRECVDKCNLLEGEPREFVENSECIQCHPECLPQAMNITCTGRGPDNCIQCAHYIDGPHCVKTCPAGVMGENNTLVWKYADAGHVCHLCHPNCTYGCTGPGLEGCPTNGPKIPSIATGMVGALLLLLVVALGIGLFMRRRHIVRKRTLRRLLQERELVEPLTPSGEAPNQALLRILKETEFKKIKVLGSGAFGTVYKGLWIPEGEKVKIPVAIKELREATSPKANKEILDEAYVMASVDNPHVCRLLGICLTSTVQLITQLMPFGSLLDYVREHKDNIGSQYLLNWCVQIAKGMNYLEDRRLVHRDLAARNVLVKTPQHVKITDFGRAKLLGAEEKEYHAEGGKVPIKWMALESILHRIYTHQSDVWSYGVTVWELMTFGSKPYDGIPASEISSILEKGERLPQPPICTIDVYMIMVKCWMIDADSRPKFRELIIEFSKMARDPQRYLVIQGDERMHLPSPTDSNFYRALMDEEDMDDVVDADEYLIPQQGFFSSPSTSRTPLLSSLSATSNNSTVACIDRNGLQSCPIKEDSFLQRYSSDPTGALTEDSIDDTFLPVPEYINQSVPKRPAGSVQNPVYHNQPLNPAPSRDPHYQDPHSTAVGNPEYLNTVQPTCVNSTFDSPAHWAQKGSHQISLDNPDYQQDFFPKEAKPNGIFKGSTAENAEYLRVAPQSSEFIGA
Chain of EGFR L858R/T790M/C797S (P00533 25-1210 T790M/C797S/L858R): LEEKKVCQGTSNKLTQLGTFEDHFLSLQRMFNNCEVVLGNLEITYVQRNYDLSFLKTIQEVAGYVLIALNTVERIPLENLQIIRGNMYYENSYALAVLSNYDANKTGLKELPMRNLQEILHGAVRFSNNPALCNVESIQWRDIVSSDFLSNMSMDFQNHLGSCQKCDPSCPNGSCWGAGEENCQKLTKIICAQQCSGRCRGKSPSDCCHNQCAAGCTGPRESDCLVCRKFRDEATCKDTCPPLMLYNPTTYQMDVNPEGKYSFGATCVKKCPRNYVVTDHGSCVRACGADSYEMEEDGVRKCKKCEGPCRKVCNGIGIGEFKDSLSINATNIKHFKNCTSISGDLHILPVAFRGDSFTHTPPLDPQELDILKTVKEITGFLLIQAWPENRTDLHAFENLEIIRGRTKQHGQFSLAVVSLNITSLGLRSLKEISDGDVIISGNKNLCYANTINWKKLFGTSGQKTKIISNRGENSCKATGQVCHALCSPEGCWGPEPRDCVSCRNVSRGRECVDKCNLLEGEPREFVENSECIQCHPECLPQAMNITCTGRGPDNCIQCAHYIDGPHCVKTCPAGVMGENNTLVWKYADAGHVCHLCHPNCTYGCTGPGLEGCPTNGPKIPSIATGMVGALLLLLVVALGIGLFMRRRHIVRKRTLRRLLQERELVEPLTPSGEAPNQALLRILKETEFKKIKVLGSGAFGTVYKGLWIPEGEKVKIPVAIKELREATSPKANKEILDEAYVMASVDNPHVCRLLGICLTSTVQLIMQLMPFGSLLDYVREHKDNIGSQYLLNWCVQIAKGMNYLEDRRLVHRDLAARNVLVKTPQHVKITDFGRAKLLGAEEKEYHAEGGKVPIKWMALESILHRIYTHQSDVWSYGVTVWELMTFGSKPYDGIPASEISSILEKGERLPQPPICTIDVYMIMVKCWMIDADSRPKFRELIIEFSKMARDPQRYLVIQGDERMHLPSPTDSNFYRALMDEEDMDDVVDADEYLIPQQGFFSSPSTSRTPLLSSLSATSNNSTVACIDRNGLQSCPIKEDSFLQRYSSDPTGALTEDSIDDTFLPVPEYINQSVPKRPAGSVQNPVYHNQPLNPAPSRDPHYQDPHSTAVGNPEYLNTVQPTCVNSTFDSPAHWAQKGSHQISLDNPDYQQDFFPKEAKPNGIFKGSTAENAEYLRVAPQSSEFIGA

On to `O=S(=O)(C1CC1)n1cc(-c2nccc(Nc3cc(N[C@H]4CC[C@@H](CO)CC4)c(-c4cc(OCCN5CCOCC5)ccn4)cn3)n2)cn1` [Example 212, ((1s,4s)-4-((6′-((2-(1-(Cyclopropylsulfonyl)-1H-pyrazol-4-yl)pyrimidin-4-yl)amino)-4-(2-morpholinoethoxy)-[2,3′-bipyridin]-4′-yl)amino)cyclohexyl)methanol], for which the IC50 at EGFR L858R/C797S (setting [1]) turned out to be 0.5 nM; against EGFR L858R/C797S (IC50 L858R/C797S, 100 μM ATP) it was 18.7 nM; at EGFR del19/C797S (setting [2]), 1.2 nM; against EGFR del19/C797S (IC50 del19/C797S, 100 μM ATP), 2.7 nM; at EGFR L858R/T790M/C797S (setting [3]) it was 0.4 nM; against EGFR L858R/T790M/C797S (setting [4]), 0.6 nM. Besides, the IC50 was found to be 0.5 nM at EGFR del19/T790M/C797S (setting [5]); 1 nM against EGFR del19/T790M/C797S (setting [6]); 3.4 nM at EGFR wildtype (setting [7]); 7860 nM against EGFR wildtype (IC50 WT, 100 μM ATP).
Regarding `CC(C)(O)c1cc(-c2cnc(Nc3ccnc(-c4cnn(S(=O)(=O)C5CC5)c4)n3)cc2N[C@H]2CC[C@@H](C(C)(C)O)CC2)ncc1F` [Example 106, 2-(6′-((2-(1-(Cyclopropylsulfonyl)-1H-pyrazol-4-yl)pyrimidin-4-yl)amino)-5-fluoro-4′-(((1s,4s)-4-(2-hydroxypropan-2-yl)cyclohexyl)amino)-[2,3′-bipyridin]-4-yl)propan-2-ol], the IC50 against EGFR L858R/C797S (setting [8]) was 9.6 nM; on EGFR L858R/C797S (setting [9]) it was 4.1 nM; on EGFR del19/C797S (setting [10]), 11.2 nM; at EGFR L858R/T790M/C797S (setting [11]), 4.1 nM; at EGFR L858R/T790M/C797S (setting [12]) it was 2.6 nM; against EGFR del19/T790M/C797S (setting [13]), 8.6 nM. Also, the results for the IC50 on EGFR del19/T790M/C797S (setting [14]), against EGFR wildtype (setting [15]) and at EGFR wildtype (setting [16]) were 6.2 nM, 3710 nM and 37.8 nM, respectively.
With `CC1(O)CCC(Nc2cc(Nc3ccnc(-c4cnn(S(=O)(=O)C5CC5)c4)n3)ncc2-c2cc(CN3CC(O)C3)ccn2)CC1` (centres unmarked) [Example 288, 1-((6′-((2-(1-(Cyclopropylsulfonyl)-1H-pyrazol-4-yl)pyrimidin-4-yl)amino)-4′-(((1s,4s)-4-hydroxy-4-methylcyclohexyl)amino)-[2,3′-bipyridin]-4-yl)methyl) azetidin-3-ol], the IC50 at EGFR L858R/C797S (setting [1]) was 0.3 nM; on EGFR L858R/C797S (IC50 L858R/C797S, 100 μM ATP) it was 6.8 nM; at EGFR del19/C797S (setting [2]), 0.2 nM; against EGFR del19/C797S (IC50 del19/C797S, 100 μM ATP), 0.5 nM; on EGFR L858R/T790M/C797S (setting [3]), 0.1 nM; at EGFR L858R/T790M/C797S (setting [4]) it was 0.2 nM. For the same compound, the IC50 at EGFR del19/T790M/C797S (setting [5]) was 0.2 nM; against EGFR del19/T790M/C797S (setting [6]), 0.3 nM; at EGFR wildtype (setting [7]) it was 0.7 nM; against EGFR wildtype (IC50 WT, 100 μM ATP), 2000 nM.
For `CC(C)(O)c1ccc(-c2cnc(Nc3ccnc(-c4cnn(S(=O)(=O)C5CC5)c4)n3)cc2N[C@H]2CC[C@@H](CO)CC2)nn1` [Example 87, 2-(6-(6-((2-(1-(Cyclopropylsulfonyl)-1H-pyrazol-4-yl)pyrimidin-4-yl)amino)-4-(((1s,4s)-4-(hydroxymethyl)cyclohexyl)amino)pyridin-3-yl)pyridazin-3-yl)propan-2-ol], the IC50 was 4.7 nM on EGFR L858R/C797S (setting [8]); 0.6 nM on EGFR L858R/C797S (setting [9]); 0.5 nM at EGFR del19/C797S (setting [10]); 0.4 nM at EGFR del19/C797S (setting [17]); 0.1 nM on EGFR L858R/T790M/C797S (setting [11]); 0.1 nM on EGFR L858R/T790M/C797S (setting [12]). The IC50 came out at 5.9 nM against EGFR del19/T790M/C797S (setting [13]), 0.1 nM on EGFR del19/T790M/C797S (setting [14]), 992 nM against EGFR wildtype (setting [15]) and 2.2 nM at EGFR wildtype (setting [16]).
For `O=S(=O)(C1CC1)n1cc(-c2nccc(Nc3cc(N[C@H]4CC[C@H](CCO)CC4)c(-c4ccc(C(F)F)cn4)cn3)n2)cn1` [Example 95, 2-((1r,4r)-4-((6′-((2-(1-(Cyclopropylsulfonyl)-1H-pyrazol-4-yl)pyrimidin-4-yl)amino)-5-(difluoromethyl)-[2,3′-bipyridin]-4′-yl)amino)cyclohexyl)ethan-1-ol], the IC50 at EGFR L858R/C797S (setting [8]) amounted to 9160 nM; on EGFR L858R/C797S (setting [9]), 8480 nM; at EGFR del19/C797S (setting [10]) it was 1540 nM; at EGFR del19/C797S (setting [17]), 66.9 nM; at EGFR L858R/T790M/C797S (setting [11]), 2 nM; at EGFR L858R/T790M/C797S (setting [12]), 0.9 nM. In addition, the IC50 at EGFR del19/T790M/C797S (setting [13]) is 5.6 nM; at EGFR del19/T790M/C797S (setting [14]), 2.5 nM; against EGFR wildtype (setting [15]) it was greater than 10000 nM; at EGFR wildtype (setting [16]), 222 nM.
For `CC(F)(F)c1ccc(-c2cnc(Nc3ccnc(-c4cnn(S(=O)(=O)C5CC5)c4)n3)cc2N[C@H]2CC[C@@H](C(C)(C)O)CC2)nc1` [Example 242, 2-((1s,4s)-4-((6′-((2-(1-(Cyclopropylsulfonyl)-1H-pyrazol-4-yl)pyrimidin-4-yl)amino)-5-(1,1-difluoroethyl)-[2,3′-bipyridin]-4′-yl)amino)cyclohexyl)propan-2-ol], the IC50 came out at 10.7 nM on EGFR L858R/C797S (setting [1]); 179 nM at EGFR L858R/C797S (IC50 L858R/C797S, 100 μM ATP); 15.2 nM at EGFR del19/C797S (setting [2]); 18.7 nM at EGFR del19/C797S (IC50 del19/C797S, 100 μM ATP); 2.5 nM at EGFR L858R/T790M/C797S (setting [3]); 11.3 nM on EGFR L858R/T790M/C797S (setting [4]). Further, the IC50 was 4.8 nM at EGFR del19/T790M/C797S (setting [5]); 9.7 nM against EGFR del19/T790M/C797S (setting [6]); 53.5 nM at EGFR wildtype (setting [7]); greater than 10000 nM against EGFR wildtype (IC50 WT, 100 μM ATP).
